Data reported in patent US9409905B2, “Antibacterial compounds and methods for use” (PTC THERAPEUTICS, INC., priority 2011, dated 2016).
Converted amounts (≈) assume the structure as drawn.

Legend:
[1] = system: Acinetobacter baumannii (A. baumannii) BAA747; assay: Antibacterial activity, MIC (Table 4); assay type: cell-based; conditions: A. baumannii BAA747, read-out: MIC, BAA747
In short: (§1)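 Broth microdilution; MIC (μg/mL) = lowest concentration with no macroscopically visible growth. Resistant strains: multi-drug resistant clinical isolates.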

[2] = system: Klebsiella pneumoniae (K. pneumoniae) 35657; assay: Antibacterial activity, MIC (Table 4); assay type: cell-based; conditions: K. pneumoniae 35657, read-out: MIC, 35657
In short: as §1

[3] = system: E. coli 25922; assay: Antibacterial activity, microbroth dilution MIC (Table 1); assay type: cell-based, Escherichia coli; conditions: Escherichia coli; microbroth dilution; control Gram-negative E. coli 25922 strain; read-out: MIC, 25922
In short: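 Using broth microdilution, MIC endpoints (μg/mL) mark where visible growth no longer appears; the panel spans sensitive and control Gram-negative strains plus a Gram-positive strain.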

[4] = system: Pseudomonas aeruginosa (P. aeruginosa) 27853; assay: Antibacterial activity, MIC (Table 5); assay type: cell-based; conditions: P. aeruginosa 27853, read-out: MIC, 27853
In short: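 Microbroth dilution; MIC (μg/mL) = lowest concentration with no macroscopically visible growth.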

[5] = system: Staphylococcus aureus (S. aureus) 29213; assay: Antibacterial activity, microbroth dilution MIC (Table 1); assay type: cell-based; conditions: microbroth dilution, Gram-positive S. aureus 29213, read-out: MIC, 29213
In short: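 MIC (μg/mL) is taken as the lowest concentration with no macroscopically visible growth. Strains tested by microbroth dilution: Gram-positive S. aureus 29213, control Gram-negative E. coli 25922, and super-sensitive E. coli BAS849.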

[6] = system: Escherichia coli (E. coli) BAS849; assay: as above; assay type: cell-based; conditions: microbroth dilution, super sensitive Gram-negative E. coli BAS849, read-out: MIC, BAS849
In short: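 Read-out: visual absence of growth. The lowest concentration meeting this gives the MIC, expressed in μg/mL, with microbroth dilution as the method.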

[7] = system: E. coli ELZ4251; assay: Antibacterial activity, MIC, multi-drug resistant clinical isolate (Table 3); assay type: cell-based; conditions: Escherichia coli
In short: (§2)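 MIC (μg/mL) read as lowest concentration with no macroscopically visible growth, determined by microbroth dilution.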

[8] = system: E. coli ELZ4000; assay: as above; assay type: cell-based; conditions: Escherichia coli, ELZ4000, read-out: MIC ELZ4000
In short: as §2

[9] = system: E. coli LZ3111; assay: Antibacterial activity, MIC, quinolone resistant strain (Table 2); assay type: cell-based; conditions: Escherichia coli, LZ3111, read-out: MIC LZ3111
In short: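 Broth microdilution. Read-out: MIC in μg/mL, taken as lowest concentration with no macroscopically visible growth.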

[10] = system: K. pneumoniae MXX1232; assay: Antibacterial activity, MIC, resistant strain (Table 4); assay type: cell-based; conditions: Klebsiella pneumoniae, MXX1232; resistant K. pneumoniae MMX1232, multi-drug resistant clinical isolate; read-out: MIC, MMX1232
In short: as §1

[11] = system: A. baumannii MXX2240; assay: as above; assay type: cell-based; conditions: Acinetobacter baumannii, MXX2240; resistant A. baumannii MMX2240, multi-drug resistant clinical isolate; read-out: MIC, MMX2240
In short: as §1

[12] = system: Neisseria meningitidis (N. meningitidis) 13090; assay: Antibacterial activity, MIC (Table 8); assay type: cell-based
Description: (§3) The antibacterial activity from a microbroth dilution method may be presented as the minimum inhibitory concentration (MIC in μg/mL). The MIC value is the lowest concentration of drug which prevents macroscopically visible growth under test conditions.
(§4) Antibacterial activity of test compounds against the Gram-negative bacteria Haemophilus influenzae (H. influenzae) 49247 is shown in Table 6, Moraxella catarrhalis (M. catarrhalis) 25238 is shown in Table 7 and Neisseria meningitidis (N. meningitidis) 13090 is shown in Table 8.

[13] = system: Haemophilus influenzae (H. influenzae) 49247; assay: Antibacterial activity, MIC (Table 6); assay type: cell-based
Description: as §3, §4

| Structure (SMILES) | MIC [1] [µg/mL] | MIC [2] [µg/mL] | MIC [3] [µg/mL] | MIC [4] [µg/mL] | MIC [5] [µg/mL] | MIC [6] [µg/mL] | MIC [7] [µg/mL] | MIC [8] [µg/mL] | MIC [9] [µg/mL] | MIC [10] [µg/mL] | MIC [11] [µg/mL] | MIC [12] [µg/mL] | MIC [13] [µg/mL] |
| --- | --- | --- | --- | --- | --- | --- | --- | --- | --- | --- | --- | --- | --- |
| CCc1cc(C(=O)O)c(=O)[nH]c1-c1ccc2c(ccn2C)c1 [Cpd 21, 5-ethyl-6-(1-methyl-1H-indol-5-yl)-2-oxo-1,2-dihydropyridine-3-carboxylic acid] | < 1 | < 1 | < 1 | 12.5 to 150 (≈ 42.2 to 506 µM) | 3.5 to 12.5 (≈ 11.8 to 42.2 µM) | < 1 | 12.5 to 150 (≈ 42.2 to 506 µM) | 12.5 to 150 (≈ 42.2 to 506 µM) | 12.5 to 150 (≈ 42.2 to 506 µM) | 12.5 to 150 (≈ 42.2 to 506 µM) | 12.5 to 150 (≈ 42.2 to 506 µM) | < 1 | < 1 |
| CCc1c(-c2ccc3c(ccn3CC)c2)[nH]c(=O)c(C(=O)O)c1O [Cpd 10, 5-ethyl-6-(1-ethyl-1H-indol-5-yl)-4-hydroxy-2-oxo-1,2-dihydropyridine-3-carboxylic acid] |  |  | 3.5 to 12.5 (≈ 10.7 to 38.3 µM) |  | 1 to 3.5 (≈ 3.06 to 10.7 µM) | < 1 | 12.5 to 150 (≈ 38.3 to 460 µM) | 12.5 to 150 (≈ 38.3 to 460 µM) | 12.5 to 150 (≈ 38.3 to 460 µM) |  |  | < 1 | < 1 |
| CCc1cc(C(=O)O)c(=O)[nH]c1-c1ccc2c(c1)OCCN2C [Cpd 3, 5-ethyl-6-(4-methyl-3,4-dihydro-2H-benzo[b][1,4]oxazin-7-yl)-2-oxo-1,2-dihydropyridine-3-carboxylic acid] | 3.5 to 12.5 (≈ 11.1 to 39.8 µM) | 3.5 to 12.5 (≈ 11.1 to 39.8 µM) | 1 to 3.5 (≈ 3.18 to 11.1 µM) | 12.5 to 150 (≈ 39.8 to 477 µM) | 12.5 to 150 (≈ 39.8 to 477 µM) | < 1 | 12.5 to 150 (≈ 39.8 to 477 µM) | 12.5 to 150 (≈ 39.8 to 477 µM) | 12.5 to 150 (≈ 39.8 to 477 µM) | 12.5 to 150 (≈ 39.8 to 477 µM) | 12.5 to 150 (≈ 39.8 to 477 µM) |  | < 1 |
| Cn1ccc2cc(-c3[nH]c(=O)c(C(=O)O)cc3C3CC3)ccc21 [Cpd 35, 5-cyclopropyl-6-(1-methyl-1H-indol-5-yl)-2-oxo-1,2-dihydropyridine-3-carboxylic acid] |  |  | 1 to 3.5 (≈ 3.24 to 11.4 µM) |  | 12.5 to 150 (≈ 40.5 to 486 µM) | < 1 | 12.5 to 150 (≈ 40.5 to 486 µM) | 12.5 to 150 (≈ 40.5 to 486 µM) | 12.5 to 150 (≈ 40.5 to 486 µM) |  |  | < 1 | < 1 |
| CCc1cc(C(=O)O)c(=O)[nH]c1-c1ccc2c(c1)CCCN2C [Cpd 1, 5-ethyl-6-(1-methyl-1,2,3,4-tetrahydroquinolin-6-yl)-2-oxo-1,2-dihydropyridine-3-carboxylic acid] |  |  | 1 to 3.5 (≈ 3.2 to 11.2 µM) | 12.5 to 150 (≈ 40 to 480 µM) | 12.5 to 150 (≈ 40 to 480 µM) | < 1 | 12.5 to 150 (≈ 40 to 480 µM) | 12.5 to 150 (≈ 40 to 480 µM) | 12.5 to 150 (≈ 40 to 480 µM) |  |  | < 1 | < 1 |
| CCc1cc(C(=O)O)c(=O)[nH]c1-c1ccc2c(c1)cc(CO)n2C [Cpd 39, 5-ethyl-6-(2-(hydroxymethyl)-1-methyl-1H-indol-5-yl)-2-oxo-1,2-dihydropyridine-3-carboxylic acid] |  |  | 1 to 3.5 (≈ 3.06 to 10.7 µM) |  | 3.5 to 12.5 (≈ 10.7 to 38.3 µM) | < 1 | 12.5 to 150 (≈ 38.3 to 460 µM) | 12.5 to 150 (≈ 38.3 to 460 µM) | 12.5 to 150 (≈ 38.3 to 460 µM) |  |  | < 1 | < 1 |
| CCc1cc(C(=O)O)c(=O)[nH]c1-c1ccc2c(cnn2C)c1 [Cpd 41, 5-ethyl-6-(1-methyl-1H-indazol-5-yl)-2-oxo-1,2-dihydropyridine-3-carboxylic acid] | 12.5 to 150 (≈ 42 to 505 µM) | 12.5 to 150 (≈ 42 to 505 µM) | 3.5 to 12.5 (≈ 11.8 to 42 µM) | 12.5 to 150 (≈ 42 to 505 µM) | 12.5 to 150 (≈ 42 to 505 µM) | < 1 | 12.5 to 150 (≈ 42 to 505 µM) | 12.5 to 150 (≈ 42 to 505 µM) | 12.5 to 150 (≈ 42 to 505 µM) | 12.5 to 150 (≈ 42 to 505 µM) | 12.5 to 150 (≈ 42 to 505 µM) | < 1 | < 1 |
| CCc1cc(C(=O)O)c(=O)[nH]c1-c1ccc2c(c1)cc(C)n2C [Cpd 37, 6-(1,2-dimethyl-1H-indol-5-yl)-5-ethyl-2-oxo-1,2-dihydropyridine-3-carboxylic acid] |  |  | < 1 |  | 1 to 3.5 (≈ 3.22 to 11.3 µM) | < 1 | 12.5 to 150 (≈ 40.3 to 483 µM) | 12.5 to 150 (≈ 40.3 to 483 µM) | 12.5 to 150 (≈ 40.3 to 483 µM) |  |  | < 1 | < 1 |
